According to a melting point compilation (Tetko et al.; mined from patent text by program, amines drawn as free bases though some values may be those of a salt):

| SMILES | melting point [°C] |
| --- | --- |
| Nc1nc(N)nc(N2CC=CCC2)n1 | 200 to 202 |
| COc1ccc(Cc2cnc(N[N+](=O)[O-])[nH]c2=O)cn1 | 184 to 186 |
| O=S(c1ccncc1)C1CCNCC1 (configuration not stated) | 73 to 76 |
| COc1ccc(Oc2ccc3ccc(NC(=O)c4ccccc4)nc3n2)cc1 | 171 |
| COC1(c2cccc(OCc3ccc4ccccc4c3)c2)CC(C)OC(C)C1 (configuration not stated) | 105 to 107 |
| CC(=O)NCN(C(=O)CCl)C(=C(C)C)C(C)C | 113 to 114 |
| COc1ccc(CC(NC(=O)CNC(=O)OCc2ccccc2)C(=O)NC2C(C(=O)O)OC(n3cnc4c(NC(=O)c5ccccc5)ncnc43)C2O)cc1 (configuration not stated) | 78 to 84 |
| CC1(c2ccccc2)CCC(=O)CC1 | 48 to 50 |
| CC(C)(C)OC(=O)c1ccc(C(=O)OC(C)(C)C)cc1 | 117 to 118 |
| O=C(Nc1ccccc1)C1=C(N2CCCC2)COC1=O | 200 to 201 |
| CN(CC(=O)C(Cc1ccccc1)NC(=O)c1ccccc1)C(=O)N1CCCC1C(=O)O (configuration not stated) | 60 to 82 |
| OC(c1ccccc1)(c1ccccc1)c1ccccc1Cl | 87 |
| O=C1c2ccccc2CN2C(=O)CCC12 (configuration not stated) | 105 to 107 |
| CCN(C)C(=O)c1ccc(N2CCN(Cc3cnc4c(c3)NC(=O)[C@@H]3CCCN43)CC2)cc1 | 91.9 |
| Nc1ncnc2c1ncn2Cc1oc2ccc(F)cc2c(=O)c1-c1ccccc1 | 207 to 209 |
| CSCc1nnc2n1-c1sc(Cl)cc1C(c1ccccc1Cl)=NC2 | 200 to 202 |
| OC(CSc1ccnc2ccccc12)c1ccc2ccccc2c1 (configuration not stated) | 170 to 172 |
| CCCN1C(=O)N2CC(c3cccnc3)CN=C2c2[nH]c(C3CCCC3)nc21 (configuration not stated) | 190 to 195 |
| COC(=O)c1nc2nc(C)c(C)c(S)n2n1 | 206 to 207 |
| C1=C(c2c[nH]c3ccccc23)CCN(CC2CCc3ccccc32)C1 (configuration not stated) | 168 to 170 |
| Nc1c2c(nc3ccc(Br)cc13)CCC2 | 236 to 238 |
| CCOC(=O)C(CC)Oc1ccc2c(-c3ccc(Cl)cc3)noc2c1 (configuration not stated) | 73 |
| Cn1nc(-c2ccc(Cl)cc2)cc1N=Cc1ccsc1 | 130 |

| SMILES | melting point [°C] |
| --- | --- |
| CCOC(=O)Cn1cc(Cc2cccc([N+](=O)[O-])c2)c2ccccc21 | 163 to 165 |
| NC(=O)NCCCCCC1CCSS1 (configuration not stated) | 74 to 78 |
| N#Cc1cc2c(cc1F)OCC21C(=O)N(Cc2ncccc2C(F)(F)F)c2ccccc21 (configuration not stated) | 209 to 211 |
| COc1ccc(S(=O)(=O)N2c3cc(Br)sc3-c3ccccc3[C@H]2C)cc1 | 136 to 138 |
| Cc1noc2cc3c(cc12)C1(CO3)C(=O)N(Cc2nc(C(=O)N(C)C)co2)c2ccccc21 (configuration not stated) | 87 to 89 |
| C[Si](C)(C)OC(Cn1cncn1)(Cn1cncn1)c1ccc(F)cc1F | 69 to 71 |
| CCN(CC)CCNC(=O)COc1cccc(-n2nc(-c3ccc(F)cc3)c3cccnc32)c1 | 137 to 138 |
| CCOn1c(C(F)(F)F)nc2c([N+](=O)[O-])cc(C(F)(F)F)cc21 | 94 to 96 |
| NCC1Cc2cc(-c3ccccc3)cc(-c3ccc(F)cc3F)c2O1 (configuration not stated) | 159 to 162 |
| Cc1cccc(C)c1CNc1cc(C2=NCCN2)cc2c1nc(C)n2C | 273 to 274 |
| COC[C@@H](C)n1cc(Cl)nc(N2CCc3cc(Cl)cc(Cl)c32)c1=O | 93 to 95 |
| O=C1c2ccccc2SCC1(CO)CO | 136 to 139 |
| CSc1nc(OCC(F)(F)F)c(C#N)c(N2CCc3ccccc3CC2)n1 | 108 to 110 |
| CN1CCC(OC(c2cccc(SCCNc3c(N)c(=O)c3=O)c2)c2nc3ccccc3[nH]2)CC1 (configuration not stated) | 161 |
| CCc1nc2c(cnn2CC)c(NC2CCOCC2)c1CNC(=O)c1cccc(C(=O)NCc2ccc(C)c(-c3cccc(CN4CC5CC4CN5)c3)c2)c1 (configuration not stated) | 138 to 140 |
| Cc1nnc(-c2nnc(S)o2)o1 | 150 to 151 |
| CC(C)(C)[Si](Oc1ccc(C=O)cc1)(c1ccccc1)c1ccccc1 | 103 to 105 |
| COc1cc(Cc2cc3cc(Cl)ccc3n2S(=O)(=O)c2ccc(C(C)C)cc2)ccc1C(=O)O | 67 |
| Cc1cc(C2(C(F)(F)F)C=NC(c3ccccc3)C2)ccc1NC(=O)c1cccc(I)c1C(=O)NC(C)C (configuration not stated) | 118 to 120 |
| NC(=O)CCc1cc(C(=O)O)cc(S(N)(=O)=O)c1Oc1ccccc1 | 192 to 196 |
| COc1ccc(C(=O)NC2CCCCC2)c2c1OCC2CC(=O)O (configuration not stated) | 246 to 247 |
| COc1ccc(C2CCN(C(=O)CC(N)=O)CC2)cc1OC1CCCC1 | 132 to 133 |

Results, then the compound that gave them:

| melting point [°C] | SMILES |
| --- | --- |
| 139 to 142 | CC1(C)SCN(CCCCN2CCN(c3n[nH]c4ccccc34)CC2)C1=O |
| 258 to 261 | COc1cc2ncnc(NC3=CC(=O)C(Nc4ccccc4)=CC3=O)c2cc1OC |
| 166 | O=C(c1ccc(F)cc1)C1CCN(CCn2c(=O)c3ccccc3n(-c3ccccc3)c2=O)CC1 |
| 78 to 87 | O=C(O)CCCC/C=C(\c1ccc(-c2nc(C(=O)N[C@@H]3C[C@H]3c3ccccc3)co2)cc1)c1cccnc1 |
| 195 to 197 | Nc1ncc(C2OC(CO)C(O)C2O)c(Cl)n1 (configuration not stated) |
| 165 to 176 | O=C(O)c1ccc(CN2CCC(CCCC(=O)c3ccc4c(c3)CCN(Cc3ccccc3)CC4)CC2)cc1 |
| 166 to 167 | CN1CC=C(C2=Nc3cc(Cl)ccc3Oc3ccc(Cl)cc32)CC1 |
| 133 to 135 | COc1ccc(-c2cc(CN3CCN(CCO)CC3)c(=O)n(CC=Cc3ccc(Cl)cc3)n2)cc1F |
| 48 to 50 | CS(=O)(=O)Nc1ccc(CCCOCCCCCCNCC(O)c2ccc(O)c(CO)c2)cc1 (configuration not stated) |
| 168 to 171 | CCCc1nc2c(N)nc3cc(-c4cccc(CN)c4)ccc3c2s1 |
| 152 to 155 | O=Cc1csc(Nc2ccc(F)cc2)n1 |
| 172 to 181 | CSCc1nc(C(C)(C)O)c(C(=O)O)n1Cc1ccc(-c2ccccc2-c2nnn[nH]2)cc1 |
| 103 to 104 | O=S(=O)(CCC=C(F)F)c1nccc(-c2ccccc2)n1 |
| 173 to 174 | COc1ccc(Cn2c(=O)nc(C3CC3)c3cc(-c4cccc(Cl)c4)ccc32)cc1 |
| 128 to 129 | CC(c1ccc(-c2ccccc2)c(F)c1)c1csc(NS(C)(=O)=O)n1 (configuration not stated) |
| 170 to 172 | Cc1ccc(NS(=O)(=O)c2ccc([N+](=O)[O-])cc2)cc1 |
| > 250 | O=c1[nH]c2cc(N3CCCC3)c(F)cc2c(=O)n1OCc1ccccc1 |
| 100 to 103 | OCCNc1nnc(-c2ccc(F)c(F)c2Nc2ccc(I)cc2F)o1 |
| 268 to 269 | CC(C)S(=O)(=O)c1cc(OCc2ccccc2F)c2[nH]nc(Nc3nccs3)c2c1 |
| 86 to 88 | CCOC(=O)C1=C(C)NC(COC(=O)COc2ccc(Cl)cc2)=C(C(=O)OCC)C1c1ccccc1[N+](=O)[O-] (configuration not stated) |
| > 250 | COc1cc(Nc2c(C#N)cnc3cc(-c4ccc(C=O)o4)ccc23)c(Cl)cc1Cl |
| 168 to 170 | CN1OCC(=O)N(c2ccc(C(C)(C)C)cc2)C1=S |
| 61 to 62 | CCC(COC)(OC)c1cc(F)cc(OCc2ccccc2)c1 (configuration not stated) |
| 161 | CCOC(=O)c1ccc(C(=O)C2=NS(=O)(=O)c3ccccc3C2=O)cc1 |
| 149 to 152 | CCOn1c(C)nc(N2CCc3ccccc3CC2)c(C#N)c1=O |
| 195 to 196 | CC(C)S(=O)(=O)c1cc(OCCc2ccccn2)c2[nH]nc(Nc3cnccn3)c2c1 |

| melting point [°C] | SMILES |
| --- | --- |
| 195 | CCCCCCCNC(=O)Nc1ccc(N(C)C)cc1C(=O)NCC1CC2CCC(C1)N2C(c1ccccc1)c1ccccc1 (configuration not stated) |
| 248 to 251 | O=CNc1nc2ccc([N+](=O)[O-])cc2s1 |
| 81 to 81.5 | O=C1CCC(=C2CCC(C3CCCCC3)CC2)CC1 (configuration not stated) |
| 204 to 206 | COC(=O)c1cc(N)c(F)c(-c2ccc(Cl)c(OC)c2F)n1 |
| 128 to 132 | Clc1ccc(-c2ccc(-c3ccccc3)s2)s1 |
| 202 to 205 | CC(C)c1cccc(C(C)C)c1NC(=O)CS(=O)(=O)Nc1c(C(C)C)cccc1C(C)C |
| 80 | CSc1cc(C(F)(F)F)ccc1C#N |
| 168 to 169 | CCOC(=O)c1c(Cl)nc2cc(OC)c(OC)cc2c1-c1ccc(OC)c(OC)c1 |
| 171 to 175 | CNC(=O)c1cccc(Cl)c1Nc1nc(Nc2ccc3c(c2)CCC(N2CCC(N4CCN(C)CC4)CC2)CC3)ncc1Cl (configuration not stated) |
| 159 | Nc1cc(=O)n(Cc2ccc(Cl)c(Cl)c2)[nH]1 |
| 130 to 132 | CCCc1c(OCCCSc2ccc(C(=O)CCCCC(=O)O)cc2)ccc(C(C)=O)c1O |
| 168 to 169 | CCCCCCNC(=O)Nc1ccccc1C(=O)NCC1CCN(C(c2ccccc2)c2ccccc2)CC1 |
| 167 to 168 | O=C1C2CCC(N1c1ccc(F)cc1)n1c(=O)n(-c3ccccc3)c(=O)n12 (configuration not stated) |
| 172 to 173 | N#Cc1cccc(C(=O)Cn2cncn2)c1 |
| 95 | OCC1CN(Cc2ccccc2)CCc2c1[nH]c1ccccc21 (configuration not stated) |
| 164 to 167 | C[C@@H](Nc1nnc(-c2ccccc2)c2ccccc12)C1CCCCC1 |
| 242 to 243 | CC(=O)Nc1nc2c(Oc3cc(-c4ccc(C(F)(F)F)cc4I)ncn3)cccc2s1 |
| 117 to 119 | CCc1c(-c2ccccc2)nc(C(C)C)c(C#CI)c1-c1ccc(F)cc1 |
| 274 to 275 | Cc1oc(-c2ccccc2)nc1C=Cc1ccc(/C=C/C=C2/OC(=O)NC2=O)cc1 |
| 84 to 89 | FC(F)(F)/C(=C(\c1ccccc1)c1ccc(OCCN2CCOCC2)cc1)c1ccccc1 |
| 186 to 187 | O=C(NC(CCc1ccccc1)C(=O)Nc1n[nH]c(=S)s1)OCC1c2ccccc2-c2ccccc21 (configuration not stated) |
| 240 to 242 | Cc1cc2c(cc1Cl)C=C(C(=O)O)C(C(F)(F)F)S2 (configuration not stated) |
| 117 to 118 | C=C(C)Sc1oc2cc(OC)ccc2c(=O)c1-c1ccccc1 |
| 229 to 232 | Nc1ccc2nc3c(nc2c1)OCC1CCCCN31 (configuration not stated) |
| 80 to 81 | O=S(=O)(Oc1ccc2sccc2c1)c1ccccc1 |
| 124 to 126 | CC1(CN2CCC(=O)CC2)Cn2cc([N+](=O)[O-])nc2O1 (configuration not stated) |
